Assay [1] relates to wild-type mice (O-MACS-Cre). The assay is described as follows: Freezing test, quantification of fear reaction due to odor. The class given is in vivo, mouse. The settings on record: for Freezing time (%): mice, n=8, 20 min observation, value ± standard error, t-test vs 1,3-dioxolane; for freezing-inducing effect at too high a concentration: Example 3, FIG. 4, dilution series up to 1.082 mmol. The procedure: About 5- to 7-month-old littermate wild-type mice (O-MACS-Cre) were placed in the mouse cages set in a draft (one mouse per cage) to perform habituation for 20 min. Similarly, 20 min habituation was performed the next day. On day 3, odor pods containing odorant molecules were placed in the cages in the draft, and the mice were placed in the cages with odor pods. The behaviors of the mice from day 1 to day 3 were video-recorded and the freezing time was analyzed by FreezeFrame system manufactured by NeuroScience Inc. The time during which the mouse was motionless for 2 seconds or longer was measured as a freezing time, and the time of freezing during the 20 min observation time was shown in %. The freezing time on day 2 was shown as control without odor in the data. As the mice used for experiment, male mice were used to avoid abnormality in the olfactory sense due to the sexual cycle. […] The odor pod refers to an apparatus containing filter paper impregnated with odorant and placed in a plastic petri dish with a lid having a hole. In this experiment, 2 MB (2-methylbutyric acid) 45 μL (270.6 μmol) or TMT 35 μL (270.6 μmol) was used as the odorant molecule.
Using various compounds, the freezing test shown in Experimental Example 1 was performed. […] For the experiment, 270.6 μmol of odorant molecules were used. The abbreviations and the formal names of the odorant molecules used are as follows.
The influence of the concentration of the odorant molecule on the effect of inducing a freezing behavior was analyzed. […] The freezing behavior was analyzed by a method similar to that in Example 1. The amount of the odorant molecules used of the both compounds was 270.6 nmol for 0.001, 2.706 μmol for 0.01, 27.06 μmol for 0.1, 270.6 μmol for 1, and 1.082 mmol for 4. The odorant molecule concentration in the gas in the test system was measured by gas chromatography, and the presence of a dependency relationship between the amount of the odorant molecules used for the test and the odorant molecule concentration in the gas in the test system was confirmed.
Using the following test compounds (13 kinds), the freezing test shown in Experimental Example 1 was performed. […] For the experiment, 270.6 μmol of odorant compounds were used.

In another assay the test system is mice. The assay is described as follows: Acclimation test (freezing time on daily odor exposure for 8 days). The class given is in vivo, mouse. Here is the method: About 5- to 7-month-old littermate wild-type mice (O-MACS-Cre) were placed in the mouse cages set in a draft (one mouse per cage) to perform habituation for 20 min. Similarly, 20 min habituation was performed the next day. On day 3, odor pods containing odorant molecules were placed in the cages in the draft, and the mice were placed in the cages with odor pods. The behaviors of the mice from day 1 to day 3 were video-recorded and the freezing time was analyzed by FreezeFrame system manufactured by NeuroScience Inc. The time during which the mouse was motionless for 2 seconds or longer was measured as a freezing time, and the time of freezing during the 20 min observation time was shown in %. The freezing time on day 2 was shown as control without odor in the data. As the mice used for experiment, male mice were used to avoid abnormality in the olfactory sense due to the sexual cycle. Each experiment was performed with n=5. The odor pod refers to an apparatus containing filter paper impregnated with odorant and placed in a plastic petri dish with a lid having a hole. In this experiment, 2 MB (2-methylbutyric acid) 45 μL (270.6 μmol) or TMT 35 μL (270.6 μmol) was used as the odorant molecule.
Acclimation test: By the method of Experimental Example 1, mice (N=8) were forced to smell the test compound (2MT) every day for 8 days, and the freezing time (%) was measured over time. As a control, mice that were forced to learn to feel fear with the smell of anisole by a method including applying an electric shock immediately after smelling anisole (hereinafter to be also referred to as fear learning mice) were used. The aforementioned fear learning mice (N=8) were forced to smell anisole every day for 8 days, and the freezing time (%) was measured over time.

The structures appear in SMILES notation.

`CC1CN=CS1` (centres unmarked) [5-methyl-2-thiazoline]: the “Freezing time (%)” value in assay [1] (Example 4, 270.6 μmol odorant) is 39.6 ± 3.5 %.
On the same count and under the same terms, under `CC1(C)NCCS1` [2,2-dimethylthiazolidine] stands 29.3 ± 5.2 %.
The same measure, in the same setting: the result for `CCc1nccs1` [2-ethylthiazole] reads 7.3 ± 1.6 %.
Still for that read-out and setting: under `CSC1=NCCS1` [2-methylthio-2-thiazoline] stands 6.2 ± 3.0%.
`CCN=C=S` [ethyl isothiocyanate]: the “Freezing time (%)” value in assay [1] (Example 4, 270.6 μmol odorant) is given as 14.0 ± 4.5 %.
As to `C1COCO1` [1,3-dioxolane, reference compound], the “fear reaction of the comparison odorant” value in assay [1] (Example 4, odorant used as comparison for the t-test) was “does not induce a fear reaction”.
As for `C1CSCCN1` [thiomorpholine], in assay [1] (Example 4, 270.6 μmol odorant), the “Freezing time (%)” value is reported as 15.9 ± 2.5 %.
As for `CC1=NCCS1` [2MT, 2-methyl-2-thiazoline], the “freezing time profile on smelling the odor every day for 8 days” value in the assay with mice (Example 5, FIG. 5, mice N=8, not conditioned) was “did not decrease but rather increased”. For the same molecule, the “freezing-inducing effect at too high a concentration” value in assay [1] is “decreased effect”. In assay [1] (Example 4, 270.6 μmol odorant), the “Freezing time (%)” value was 49.9 ± 3.0 %.
Regarding `c1ccsc1` [thiophene], the “Freezing time (%)” value in assay [1] (Example 4, 270.6 μmol odorant) was determined as 2.7 ± 1.6%.
As to `CC1=NC(C)SC1C` (centres unmarked) [TMT, 2,4,5-trimethyl-3-thiazoline, reference compound], in assay [1], the “freezing-inducing effect at too high a concentration” value is given as “decreased effect”. Further, in assay [1] (Experimental Example 1, FIG. 1, mice n=5, 270.6 μmol odorant), the “freezing time compared with 2 MB (putrid odor)” value was “longer freezing time”.
Regarding `COc1ccccc1` [anisole], in the assay on mice (Example 5, FIG. 5, fear learning mice, anisole every day for 8 days, N=8), the “freezing time profile on smelling the odor every day” value is reported as “decreased with time”. The “freezing time with anisole the next day” value in the assay with mice (Example 5, fear learning mice (electric shock after smelling anisole), N=8) was “not less than 50%”.
Turning to `C1CSCN1` [thiazolidine], the “Freezing time (%)” value in assay [1] (Example 4, 270.6 μmol odorant) was 18.2 ± 5.3 %.
Still for that read-out and setting: under `CC1CNCS1` (centres unmarked) [5-methylthiazolidine] stands 4.2 ± 2.7%.
The same measure, in the same setting: under `CC1=NCC(C)S1` (centres unmarked) [2,5-dimethyl-2-thiazoline] stands 55.9 ± 4.4 %; under `CC1(C)CS1` [isobutylene sulfide], 4.3 ± 1.9 %; under `Brc1nccs1` [2-bromothiazole], 4.8 ± 1.6 %.
